Laboratory results published in PubChem BioAssay (NCI).
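Interpolation was linear, between the two tested concentrations surrounding the appropriate level; five concentrations were tested over 48 hours in 96-well plates. GI50 is the concentration that inhibits growth by half. TGI denotes the concentration required for complete inhibition of growth.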

Columns and labels:
Assay in all cases: inhibition of tumour cell growth, NCI panel, 48 h
[1] = system: 786-0 renal
[2] = system: A498 renal
[3] = system: A549 NSCLC
[4] = system: ACHN renal
[5] = system: BT-549 breast
[6] = system: CAKI-1 renal
[7] = system: CCRF-CEM leukemia
[8] = system: COLO 205 colon
[9] = system: DU-145 prostate
[10] = system: EKVX NSCLC
[11] = system: HCC-2998 colon
[12] = system: HCT-116 colon
[13] = system: HCT-15 colon
[14] = system: HL-60(TB) leukemia
[15] = system: HOP-62 NSCLC
[16] = system: HOP-92 NSCLC
[17] = system: HS 578T breast
[18] = system: HT29 colon
[19] = system: IGROV1 ovarian
[20] = system: K-562 leukemia
[21] = system: KM12 colon
[22] = system: LOX IMVI melanoma
[23] = system: M14 melanoma
[24] = system: MALME-3M melanoma
[25] = system: MCF7 breast
[26] = system: MDA-MB-231 breast
[27] = system: MDA-MB-435
[28] = system: MOLT-4 leukemia
[29] = system: NCI-H226 lung
[30] = system: NCI-H23 lung
[31] = system: NCI-H460 lung
[32] = system: NCI/ADR-RES ovarian
[33] = system: OVCAR-3 ovarian
[34] = system: OVCAR-4 ovarian
[35] = system: OVCAR-5 ovarian
[36] = system: OVCAR-8 ovarian
[37] = system: PC-3 prostate
[38] = system: RPMI-8226 leukemia
[39] = system: RXF 393 renal
[40] = system: SF-268 CNS
[41] = system: SF-295 CNS
[42] = system: SF-539 CNS
[43] = system: SK-MEL-2 melanoma
[44] = system: SK-MEL-28 melanoma
[45] = system: SK-MEL-5 melanoma
[46] = system: SK-OV-3 ovarian
[47] = system: SN12C renal
[48] = system: SNB-19 CNS
[49] = system: SNB-75 CNS
[50] = system: SR leukemia
[51] = system: SW-620 colon
[52] = system: T-47D breast
[53] = system: TK-10 renal
[54] = system: U251 CNS
[55] = system: UACC-257 melanoma
[56] = system: UACC-62 melanoma
[57] = system: UO-31 renal

For C=C(C=O)[C@@H]1CC[C@]2(CO)CC[C@]3(C)[C@H](CC[C@@H]4[C@@]5(C)CCCNC(C)(C)[C@@H]5CC[C@]43C)[C@@H]12, the GI50 [1] was 14.9 µM, the TGI [1] was 32.3 µM and the GI50 [2] was 570 nM. For the same molecule, the TGI [2] was 93.6 µM, the GI50 [3] was 15.5 µM and the TGI [3] was 46 µM. For the same molecule, the GI50 [4] was 15 µM, the TGI [4] was 31.2 µM and the GI50 [5] was 8.94 µM. It also gave a TGI [5] of 22.8 µM, a GI50 [6] of 14.3 µM and a TGI [6] of 31.8 µM. The GI50 [7] was 2210 nM, the TGI [7] was 6.22 µM and the GI50 [8] was 12.8 µM. For the same molecule, the TGI [8] was 29.4 µM, the GI50 [9] was 7.13 µM and the TGI [9] was 20.3 µM. The GI50 [10] was 11.1 µM, the TGI [10] was 30.8 µM and the GI50 [11] was 1910 nM. It also gave a TGI [11] of 3.67 µM, a GI50 [12] of 1800 nM and a TGI [12] of 3.57 µM. For the same molecule, the GI50 [13] was 1990 nM, the TGI [13] was 7.4 µM and the GI50 [14] was 1960 nM. For the same molecule, the TGI [14] was 4.36 µM, the GI50 [15] was 14.6 µM and the TGI [15] was 31.3 µM. For the same molecule, the GI50 [16] was 2120 nM, the TGI [16] was 7.64 µM and the GI50 [17] was 9.64 µM. It also gave a TGI [17] of 50.6 µM, a GI50 [18] of 2310 nM and a TGI [18] of 5.95 µM. It also gave a GI50 [19] of 3.34 µM, a TGI [19] of 13.1 µM and a GI50 [20] of 1930 nM. It also gave a TGI [20] of 5.44 µM, a GI50 [21] of 3.01 µM and a TGI [21] of 9.33 µM. The GI50 [22] was 1740 nM, the TGI [22] was 3.3 µM and the GI50 [23] was 7.77 µM. For the same molecule, the TGI [23] was 23.3 µM, the GI50 [24] was 10.8 µM and the TGI [24] was 26.4 µM. For the same molecule, the GI50 [25] was 1650 nM, the TGI [25] was 5.14 µM and the GI50 [26] was 14 µM. For the same molecule, the TGI [26] was 31.5 µM, the GI50 [27] was 4.8 µM and the TGI [27] was 18.2 µM. It also gave a GI50 [28] of 3.64 µM, a TGI [28] of 16 µM and a GI50 [29] of 5.09 µM. For the same molecule, the TGI [29] was 23.6 µM, the GI50 [30] was 6.16 µM and the TGI [30] was 21.1 µM. The GI50 [31] was 11 µM, the TGI [31] was 25.9 µM and the GI50 [32] was 4.15 µM. It also gave a TGI [32] of 23 µM, a GI50 [33] of 3.35 µM and a TGI [33] of 11.9 µM. The GI50 [34] was 6.16 µM, the TGI [34] was 23.2 µM and the GI50 [35] was 9.72 µM. For the same molecule, the TGI [35] was 23 µM, the GI50 [36] was 7.29 µM and the TGI [36] was 78.8 µM. For the same molecule, the GI50 [37] was 2910 nM, the TGI [37] was 18.8 µM and the GI50 [38] was 2960 nM. It also gave a TGI [38] of 13.9 µM, a GI50 [39] of 3.83 µM and a TGI [39] of 16.3 µM. For the same molecule, the GI50 [40] was 16.1 µM, the TGI [40] was 50.8 µM and the GI50 [41] was 13.8 µM. For the same molecule, the TGI [41] was 27.6 µM, the GI50 [42] was 7.78 µM and the TGI [42] was 20.4 µM. The GI50 [43] was 12 µM, the TGI [43] was 27.2 µM and the GI50 [44] was 3.15 µM. It also gave a TGI [44] of 12.6 µM, a GI50 [45] of 10.3 µM and a TGI [45] of 22.3 µM. The GI50 [46] was 40 µM, the TGI [46] was > 100 µM and the GI50 [47] was 14 µM. For the same molecule, the TGI [47] was 35.2 µM, the GI50 [48] was 8.56 µM and the TGI [48] was 21.3 µM. For the same molecule, the GI50 [49] was 9.07 µM, the TGI [49] was 61.8 µM and the GI50 [50] was 1750 nM. For the same molecule, the TGI [50] was 3.74 µM, the GI50 [51] was 2010 nM and the TGI [51] was 5.52 µM. It also gave a GI50 [52] of 2760 nM, a TGI [52] of 17.9 µM and a GI50 [53] of 28.5 µM. The TGI [53] was 69.9 µM, the GI50 [54] was 4.43 µM and the TGI [54] was 17.8 µM. The GI50 [55] was 11.3 µM, the TGI [55] was 31.7 µM and the GI50 [56] was 13.1 µM. It also gave a TGI [56] of 27.9 µM, a GI50 [57] of 14.9 µM and a TGI [57] of 38.7 µM.
